Experimental data as given in patent US11414424B2, “Cardiac sarcomere inhibitors” (Cytokinetics, Inc., priority 2018, dated 2022).

Each compound was assayed on bovine cardiac myofibrils (assay: Myofibril assay: PK/LDH-coupled steady-state ATPase activity of skinned bovine cardiac myofibrils). Settings: Ca2+ activating to 75% of maximal rate.
Assay type: biochemical
Summary of the method: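 Steady-state ATPase of detergent-skinned bovine left-ventricular myofibrils (1 mg/mL), PK/LDH-coupled NADH read at 340 nm, in PIPES/MgCl2 buffer pH 6.8 with 50 μM ATP, 0.6 mM EGTA and CaCl2 set for 50% or 75% activation. Inhibition of activity measured.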

| SMILES | CDMF75 IC15 [µM] |
| --- | --- |
| CC(C)NC(=O)N1CCC2(C1)C(=O)N(C(C)C)CC(=O)N2Cc1ccc(C(F)(F)F)cc1 (stereo not drawn) [Compound 117, N,9-diisopropyl-7,10-dioxo-6-(4-(trifluoromethyl)benzyl)-2,6,9-triazaspiro[4.5]decane-2-carboxamide] | 16.6 |
| CC(C)N1CC(=O)N(Cc2ccc(Cl)cc2)C2(CCN(c3ccn(C)c(=O)c3)C2)C1=O (stereo not drawn) [Compound 80, 6-(4-chlorobenzyl)-9-isopropyl-2-(1-methyl-2-oxo-1,2-dihydropyridin-4-yl)-2,6,9-triazaspiro-[4.5]decane-7,10-dione] | 1.7 |
| N#Cc1ccc(N2CC(=O)N(Cc3ccc(C(F)(F)F)cc3)C3(CN(CC(F)F)C3)C2=O)cc1 [Compound 191, 4-(2-(2,2-difluoroethyl)-6,9-dioxo-5-(4-(trifluoromethyl)benzyl)-2,5,8-triazaspiro[3.5]nonan-8-yl)benzonitrile] | 14.3 |
| Cc1cc(Cl)cnc1N1CC(=O)N(Cc2ccc(C(F)(F)F)cc2)C(C2COC2)C1=O (stereo not drawn) [Compound 645, 1-(5-chloro-3-methylpyridin-2-yl)-3-(oxetan-3-yl)-4-(4-(trifluoromethyl)benzyl)-piperazine-2,5-dione] | 5.8 |
| CCNC(=O)N1CCC2(C1)C(=O)N(C(C)C)CC(=O)N2Cc1ccc(Cl)cc1 (stereo not drawn) [Compound 119, 6-(4-chlorobenzyl)-N-ethyl-9-isopropyl-7,10-dioxo-2,6,9-triazaspiro[4.5]-decane-2-carboxamide] | 10.8 |
| CNc1ccccc1N1CC2(C1)C(=O)N(c1ccc(C#N)cc1F)CC(=O)N2Cc1ccc(C(F)(F)F)cc1 [Compound 535, 3-fluoro-4-(2-(2-(methyl-amino)phenyl)-6,9-dioxo-5-(4-(trifluoromethyl)-benzyl)-2,5,8-triazaspiro-[3.5]nonan-8-yl)benzonitrile] | 0.3 |
| COC(=O)C12CC(C3C(=O)N(c4ncc(Cl)cc4F)CC(=O)N3Cc3ccc(C(F)F)cc3)(C1)C2 (stereo not drawn) [Compound 779, methyl 3-(4-(5-chloro-3-fluoropyridin-2-yl)-1-(4-(difluoromethyl)benzyl)-3,6-dioxopiperazin-2-yl)bicyclo[1.1.1]pentane-1-carboxylate] | 2.9 |
| CC(C)(C)OC[C@H]1C(=O)N(c2ccc(C#N)cc2F)CC(=O)N1Cc1ccc(C(F)(F)F)cc1 [Compound 285, (S)-4-(3-(tert-butoxymethyl)-2,5-dioxo-4-(4-(trifluoro-methyl)benzyl)piperazin-1-yl)-3-fluorobenzonitrile] | 8.3 |
| CC(C)N1CC(=O)N(Cc2ccc(Cl)cc2)C2(CN(c3ccnc(C4CC4)c3)C2)C1=O [Compound 34, 5-(4-chlorobenzyl)-2-(2-cyclopropylpyridin-4-yl)-8-isopropyl-2,5,8-triazaspiro[3.5]nonane-6,9-dione] | 10.4 |
| NC(=O)C12CC([C@H]3C(=O)N(c4ncc(Cl)cc4F)CC(=O)N3Cc3ccc(C(F)F)cc3)(C1)C2 [Compound 821, (S)-3-(4-(5-chloro-3-fluoropyridin-2-yl)-3,6-dioxo-1-(4-(difluoro-methyl)benzyl)piperazin-2-yl)bicyclo[1.1.1]pentane-1-carboxamide] | 2.1 |
| CC(C)N1CC(=O)N(Cc2ccc(Cl)cc2)C2(CCN(c3ccc(C(N)=O)cn3)C2)C1=O (stereo not drawn) [Compound 98, 6-(6-(4-chlorobenzyl)-9-isopropyl-7,10-dioxo-2,6,9-triazaspiro[4.5]decan-2-yl)nicotinamide] | 2.4 |
| CC(C)N1CC(=O)N(Cc2ccc(Cl)cc2)C2(CN(c3cccc(Cl)c3)C2)C1=O [Compound 5, 5-(4-chlorobenzyl)-2-(3-chlorophenyl)-8-isopropyl-2,5,8-triazaspiro[3.5]-nonane-6,9-dione] | 1.9 |
| CNC(=O)c1cccc(N2CC3(C2)C(=O)N(c2ccc(C#N)cc2F)CC(=O)N3Cc2ccc(C(F)(F)F)cc2)c1 [Compound 539, 3-(8-(4-cyano-2-fluorophenyl)-6,9-dioxo-5-(4-(trifluoromethyl)benzyl)-2,5,8-triazaspiro[3.5]nonan-2-yl)-N-methylbenzamide] | 0.2 |
| CC(C)N1CC(=O)N(Cc2ccc(Cl)cc2)C2(CN(c3cn[nH]c3)C2)C1=O [Compound 41, 5-(4-chlorobenzyl)-8-isopropyl-2-(1H-pyrazol-4-yl)-2,5,8-triazaspiro-[3.5]nonane-6,9-dione] | 7.0 |
| Cc1ccc(CN2C(=O)CN(c3ncc(Cl)cc3F)C(=O)C2C2COC2)cc1F (stereo not drawn) [Compound 664, 1-(5-chloro-3-fluoropyridin-2-yl)-4-(3-fluoro-4-methylbenzyl)-3-(oxetan-3-yl)piperazine-2,5-dione] | 2.9 |
| O=C1C(C2COC2)N(Cc2ccc(Cl)c(F)c2)C(=O)CN1c1ncc(Cl)cc1F (stereo not drawn) [Compound 648, 4-(4-chloro-3-fluorobenzyl)-1-(5-chloro-3-fluoropyridin-2-yl)-3-(oxetan-3-yl)-piperazine-2,5-dione] | 2.0 |
| CC(C)N1CC(=O)N(Cc2ccccc2Cl)C(c2ccc(Cl)cc2)C1=O (stereo not drawn) [Compound 302, 4-(2-chlorobenzyl)-3-(4-chlorophenyl)-1-isopropylpiperazine-2,5-dione] | 15.2 |
| COc1cnc(N2CC(=O)N(Cc3ccc(C)c(F)c3)C(C3COC3)C2=O)c(F)c1 (stereo not drawn) [Compound 761, 4-(3-fluoro-4-methyl-benzyl)-1-(3-fluoro-5-methoxypyridin-2-yl)-3-(oxetan-3-yl)piperazine-2,5-dione] | 16.3 |
| CC(C)N1CC(=O)N(Cc2ccc(Cl)cc2)C2(CCN(c3cnn(C)c3)C2=O)C1=O (stereo not drawn) [Compound 330, 6-(4-chlorobenzyl)-9-isopropyl-2-(1-methyl-1H-pyrazol-4-yl)-2,6,9-triazaspiro[4.5]decane-1,7,10-trione] | 10.7 |
| CC(C)N1CC(=O)N(Cc2ccc(Cl)cc2)C(c2ccccc2Cl)C1=O (stereo not drawn) [Compound 310, 4-(4-chlorobenzyl)-3-(2-chlorophenyl)-1-isopropylpiperazine-2,5-dione] | 13.1 |
| Cc1cc(Cl)cnc1N1CC(=O)N(Cc2ccc(F)cc2)C(C2COC2)C1=O (stereo not drawn) [Compound 714, 1-(5-chloro-3-methylpyridin-2-yl)-4-(4-fluorobenzyl)-3-(oxetan-3-yl)piperazine-2,5-dione] | 12.4 |
| Cc1cc(Cl)cnc1N1CC(=O)N(Cc2ccc(C(F)(F)F)cc2)C(CC2COC2)C1=O (stereo not drawn) [Compound 651, 1-(5-chloro-3-methylpyridin-2-yl)-3-(oxetan-3-ylmethyl)-4-(4-(trifluoromethyl)-benzyl)piperazine-2,5-dione] | 7.3 |
| CC(C)N1CC(=O)N(Cc2ccc(Cl)cc2)C(c2cccc(Cl)c2)C1=O (stereo not drawn) [Compound 312, 4-(4-chlorobenzyl)-3-(3-chlorophenyl)-1-isopropylpiperazine-2,5-dione] | 4.9 |

Results, then the compound that gave them:

| CDMF75 IC15 [µM] | SMILES |
| --- | --- |
| 2.0 | CC(=O)N1CC2(C1)C(=O)N(c1ncc(Br)cc1F)CC(=O)N2[C@@H](C)c1ccc(C(F)(F)F)cc1 [Compound 571, (S)-2-acetyl-8-(5-bromo-3-fluoropyridin-2-yl)-5-(1-(4-(trifluoromethyl)phenyl)-ethyl)-2,5,8-triazaspiro-[3.5]nonane-6,9-dione] |
| 0.6 | O=C1CN(c2ncc(Cl)cc2F)C(=O)C2(CCC2)N1Cc1ccc(C(F)(F)F)cc1 [Compound 548, 8-(5-chloro-3-fluoropyridin-2-yl)-5-(4-(trifluoromethyl)-benzyl)-5,8-diazaspiro-[3.5]nonane-6,9-dione] |
| 19.8 | CNC(=O)N1CC2(C1)C(=O)N(c1ccc(OC)nc1)CC(=O)N2Cc1ccc(C(F)(F)F)cc1 [Compound 154, 8-(6-methoxypyridin-3-yl)-N-methyl-6,9-dioxo-5-(4-(trifluoromethyl)benzyl)-2,5,8-triazaspiro[3.5]-nonane-2-carboxamide] |
| 7.4 | CC(=O)N1CCC2(CC1)C(=O)N(c1ncc(Cl)cc1F)CC(=O)N2Cc1ccc(C(F)(F)F)cc1 [Compound 572, 9-acetyl-4-(5-chloro-3-fluoropyridin-2-yl)-1-(4-(trifluoromethyl)benzyl)-1,4,9-triazaspiro[5.5]-undecane-2,5-dione] |
| 0.2 | CNc1cc(N2CC3(C2)C(=O)N(c2ccc(C#N)cc2F)CC(=O)N3Cc2ccc(C(F)(F)F)cc2)ccc1C(=O)OC [Compound 541, methyl 4-(8-(4-cyano-2-fluorophenyl)-6,9-dioxo-5-(4-(trifluoromethyl)benzyl)-2,5,8-triazaspiro[3.5]nonan-2-yl)-2-(methylamino)benzoate] |
| 2.48 | O=C1CN(c2ncc(Cl)cc2F)C(=O)C2(COC2)N1Cc1ccc(C(F)(F)F)cc1 [Compound 551, 8-(5-chloro-3-fluoropyridin-2-yl)-5-(4-(trifluoromethyl)-benzyl)-2-oxa-5,8-diazaspiro[3.5]nonane-6,9-dione] |
| 0.4 | CCC(=O)N1CC[C@]2(C1)C(=O)N(c1ccc(C#N)cc1F)CC(=O)N2Cc1ccc(C(F)(F)F)cc1 [Compound 218, (S)-4-(7,10-dioxo-2-propionyl-6-(4-(trifluoromethyl)benzyl)-2,6,9-triazaspiro[4.5]decan-9-yl)-3-fluorobenzonitrile] |
| 0.4 | CC(C)[C@H]1C(=O)N(c2ncc(Cl)cc2F)CC(=O)N1Cc1ccc(C(F)(F)F)cc1 [Compound 554, (S)-1-(5-chloro-3-fluoro-pyridin-2-yl)-3-isopropyl-4-(4-(trifluoromethyl)-benzyl)piperazine-2,5-dione] |
| 0.8 | CC(C)N1CC(=O)N([C@@H](C)c2ccc(C(F)(F)F)cc2)C2(CN(c3ccccc3)C2)C1=O [Compound 142, (S)-8-isopropyl-2-phenyl-5-(1-(4-(trifluoromethyl)phenyl)ethyl)-2,5,8-triazaspiro[3.5]nonane-6,9-dione] |
| 0.6 | CNC(=O)N1CC2(C1)C(=O)N(c1ccc(C#N)cc1F)CC(=O)N2Cc1ccc(C2(C(F)(F)F)N=N2)cc1 [Compound 173, 8-(4-cyano-2-fluorophenyl)-N-methyl-6,9-dioxo-5-(4-(3-(trifluoromethyl)-3H-diazirin-3-yl)benzyl)-2,5,8-triazaspiro[3.5]nonane-2-carboxamide] |
